From PubChem BioAssay AID743417 (Broad Institute, 2014)
Results filed as inconclusive are left out.

tested on: Clone20 osteoblast Shn3 3'UTR firefly luciferase, 24 h; experiment: Schnurri-3 3'UTR-luciferase signal suppressors – cell-based, Clone20 osteoblasts, luminescence, dry powder, set 2, dose response (AID 743417)

Compared with `CC1CN(S(=O)(=O)c2ccc(C(=O)Nc3nc(-c4cc5ccccc5o4)cs3)cc2)CC(C)O1` (configuration not stated), `Cc1ccc(NC(=O)c2nc(S(=O)(=O)Cc3ccccc3)ncc2Cl)cc1` is higher in AC50: less than 0.26 µM for the first, 3.42 µM for the second.

Compared with `CCOC(=O)C1CCCN(S(=O)(=O)c2ccc(S(=O)(=O)N3CCCC3)cc2)C1` (configuration not stated), `CC1Cc2cc(S(=O)(=O)N3CCN(c4ccc(Cl)cc4)CC3)ccc2N1C(=O)C1CC1` (configuration not stated) is 5.2-fold higher in AC50: 0.821 µM for the first, 4.26 µM for the second.

Compared with `O=S(=O)(c1cccs1)N1CCN(CCOc2ccc(Cl)cc2)CC1`, `O=S(=O)(c1ccc(Cl)cc1)N1CCN(c2ncnc3sccc23)CC1` is 4.5-fold lower in AC50: 13.8 µM for the first, 3.04 µM for the second.

`Cc1cc(NC(=O)CCCS(=O)(=O)c2nc(-c3cccs3)cc(C(F)(F)F)n2)no1` and `CCOC(=O)CS(=O)(=O)c1nc(-c2ccc(F)cc2)cc(C(F)(F)F)n1` are within 1.5-fold of each other in AC50: 1.73 µM for the first, 1.78 µM for the second.

Compared with `COc1ccccc1-c1c(-c2ccc(O)cc2O)n[nH]c1C(F)(F)F`, `Cc1ccc(C(=O)Nc2cccc3[nH]c(C(F)(F)F)nc23)cc1` is 5.6-fold higher in AC50: 0.708 µM for the first, 3.93 µM for the second.

`CCOC(=O)c1ccc(NC(=O)c2nc[nH]c2C(=O)NCCNC(=O)c2[nH]cnc2C(=O)Nc2ccc(C(=O)OCC)cc2)cc1` and `CC(C)(C)OC(=O)NCc1ccc(CNC(=O)c2nc[nH]c2C(=O)NCc2ccc(CNC(=O)OC(C)(C)C)cc2)cc1` are within 1.5-fold of each other in AC50: 5.51 µM for the first, 5.89 µM for the second.

`COc1ccc(NC(=O)c2nc(S(=O)(=O)Cc3cccc(C)c3)ncc2Cl)c(OC)c1` and `COC(=O)c1ccccc1NC(=O)c1nc(S(=O)(=O)Cc2ccccc2)ncc1Cl` are within 1.5-fold of each other in AC50: 0.299 µM for the first, 0.428 µM for the second.

Compared with `COc1cc(SC)ccc1C(=O)Nc1nc(C)cs1`, `COc1ccc(-c2csc(NC(=O)C3CCN(c4ncnc5sc(C)c(C)c45)CC3)n2)cc1OC` is 5-fold lower in AC50: 7.09 µM for the first, 1.42 µM for the second.

`COc1ccc(/C=C/C(=O)c2ccc(C(=O)/C=C/c3ccc(OC)c(OC)c3)cc2)cc1OC` and `COc1cc(NS(=O)(=O)c2ccc(C)cc2C)cc(OC)c1OC` are within 1.5-fold of each other in AC50: 5.18 µM for the first, 4.95 µM for the second.

`CCCCN(C(C)=O)c1ccc2c(c1)C1CC2CCN1C(=O)OCc1ccccc1` (configuration not stated) and `O=C(NCCc1ccccc1)c1ccc2c(c1)OCCCO2` are within 1.5-fold of each other in AC50: 1.37 µM for the first, 1.05 µM for the second.

Compared with `Cc1ccc(C)c(N2CCN(S(=O)(=O)c3ccc4[nH]c(=O)ccc4c3)CC2)c1`, `CN(Cc1cccc(Cl)c1Cl)C(=O)c1cccc(S(=O)(=O)N2CCN(Cc3ccccc3)CC2)c1` is 7.2-fold lower in AC50: 24.2 µM for the first, 3.38 µM for the second.

`CC(=O)NC(c1cccc([N+](=O)[O-])c1)c1ccc2cccnc2c1O` (configuration not stated) and `CCCCC(=O)NC(c1cccc([N+](=O)[O-])c1)c1ccc2cccnc2c1O` (configuration not stated) are within 1.5-fold of each other in AC50: 0.889 µM for the first, 1 µM for the second.

Going from `CC(Oc1cccc(Br)c1)C(=O)NNC(=O)c1ccccn1` (configuration not stated) to `CC(C)NCC(O)COc1cccc2ccccc12` (configuration not stated), the AC50 rises from 3.36 µM to 23.6 µM (7-fold).

`CCCS(=O)(=O)Nc1ccc(Nc2c3ccccc3nc3ccccc23)c(OC)c1` and `O=C(Nc1ccc(F)cc1)c1nc(S(=O)(=O)Cc2ccccc2)ncc1Cl` are within 1.5-fold of each other in AC50: 3.39 µM for the first, 3.38 µM for the second.

Compared with `CC1Cc2cc(S(=O)(=O)N3CCC(C(=O)N4CCN(c5ccccc5F)CC4)CC3)ccc2N1C(=O)C1CC1` (configuration not stated), `O=C(c1ccc(S(=O)(=O)c2ccccc2Cl)c([N+](=O)[O-])c1)N1CCN(Cc2ccccc2)CC1` is 3.5-fold higher in AC50: 1.65 µM for the first, 5.77 µM for the second.

Going from `CC(=O)N1CCN(C(=O)CCc2cc(C(C)(C)C)c(O)c(C(C)(C)C)c2)CC1` to `Cc1nc(N2CCN(C(=O)c3ccco3)CC2)c2c3c(sc2n1)CC(C)CC3` (configuration not stated), the AC50 falls from 4.46 µM to 2.33 µM (1.9-fold).

First: O=C(Nc1ccc2nc3n(c(=O)c2c1)CCCCC3)c1cc([N+](=O)[O-])ccc1F
Second: CC(Sc1nc2ccccc2c(=O)n1C)C(=O)Nc1ccc2c(c1)OCCO2 (configuration not stated)
The AC50 of the first is 7.3-fold higher: 14.1 µM for the first, 1.94 µM for the second.

`CCn1nc(/C=C/c2ccccc2)nc2c(=O)n(C)c(=O)nc1-2` and `Cc1ccn2c(Nc3ccccc3)c(-c3ccccn3)nc2c1` are within 1.5-fold of each other in AC50: 2.57 µM for the first, 2.31 µM for the second.

First: CCN(CC)CCNC(=O)CSc1c2c(nc3cc(Cl)ccc13)CCCC2
Second: O=C1C=C(c2ccnc3cc(Cl)ccc23)C[C@@H](c2ccc3c(c2)OCO3)C1
The AC50 of the first is 11-fold higher: 14.9 µM for the first, 1.36 µM for the second.

Going from `CCCOc1ccc(C(=O)NNC(=S)NC(=O)CC)cc1` to `O=C(OC12CC3CC(CC(C3)C1)C2)c1ccc(NCc2cc(O)ccc2O)cc1`, the AC50 falls from 24.4 µM to 2.33 µM (10-fold).

`Cn1nnnc1Sc1ncnc2scc(Br)c12` and `Cc1cc(Sc2ncnc(N)c2[N+](=O)[O-])ncn1` are within 1.5-fold of each other in AC50: 6.51 µM for the first, 5.7 µM for the second.

Going from `C=C1C(=O)[C@]23C[C@H]1CCC2[C@@]1(C)C(C[C@@H]3O)[C@](C)(C(=O)OC)CC[C@@H]1OC(C)=O` (some centres not stated) to `C=C1C(=O)OC2CC1C(OC(C)=O)CC(C)=CCCC(C)=CCCC2(C)O` (configuration not stated), the AC50 falls from 2.14 µM to 0.91 µM (2.4-fold).

`Cc1cc(NC(c2ccc(Cl)cc2)c2ccc3cccnc3c2O)no1` (configuration not stated) and `O=C(c1cc(COc2ccc3ncccc3c2)on1)N1CCCCCC1` are within 1.5-fold of each other in AC50: 1.05 µM for the first, 0.703 µM for the second.

`O=C1CSc2ccc(C(=O)Nc3cccc(S(=O)(=O)Nc4ccc(Br)cc4)c3)cc2N1` and `CCN1CCN(Cc2ccc(NC(=O)c3ccc(C)c(NC(=O)c4c[nH]c5cc(C(F)(F)F)ccc5c4=O)c3)cc2C(F)(F)F)CC1` are within 1.5-fold of each other in AC50: 3.08 µM for the first, 3.13 µM for the second.

`CC(C)(C)Nc1nc(-c2ccccn2)nc2ccccc12` and `Cc1cc(Br)c(S(=O)(=O)NCc2ccncc2)cc1C` are within 1.5-fold of each other in AC50: 1.86 µM for the first, 1.41 µM for the second.

Compared with `C=CCn1c(SCC(=O)c2[nH]c(C)c(C(=O)OC)c2C)nc2scc(-c3ccc(OC)c(OC)c3)c2c1=O`, `O=C(Nc1ccc(Cl)cc1)c1cc(S(=O)(=O)N2CCOCC2)cs1` is 2.1-fold higher in AC50: 2.01 µM for the first, 4.23 µM for the second.
